# Molecular target: T1, PPARγ (Homo sapiens, UniProt P37231)
# T1 construct: expressed in transfected cells; host or cells: U2-OS (human osteogenic sarcoma), transient electroporation
# T1 sequence (P37231 238-503 limits assumed): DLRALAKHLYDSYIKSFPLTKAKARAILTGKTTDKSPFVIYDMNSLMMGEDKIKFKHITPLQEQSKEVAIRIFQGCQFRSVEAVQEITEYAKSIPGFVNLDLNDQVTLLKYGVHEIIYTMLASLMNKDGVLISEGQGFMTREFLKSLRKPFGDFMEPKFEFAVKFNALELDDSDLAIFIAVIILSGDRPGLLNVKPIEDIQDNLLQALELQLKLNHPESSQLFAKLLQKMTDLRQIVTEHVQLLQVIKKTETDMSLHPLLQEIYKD
# Assay: GAL4-PPARγ ligand binding domain luciferase reporter transactivation in transiently transfected U2-OS cells
# Format: cell-based
# Conditions: selectivity PPARα over PPARγ
# Description: The compounds of Examples 5-9 were tested in the assays described in WO03/051821.
# Compounds were dissolved in DMSO to obtain 16 mM stock solutions. Before assays, stock solutions were further diluted in DMSO and culture media.
# U2-OS, (Osteogenic sarcoma, Human) was purchased from ATCC, USA. Cells were expanded and refrozen in batches from passage number six. Cells were cultured in Dulbecco's modified Eagle medium (DMEM) with 25 mM glucose, 2 mM glutamin or 4 mM L-alanyl-L-glutamine, 10% fetal calf serum, at 5% CO2. Phosphate buffered saline (PBS) without addition of calcium or magnesium was used. All cell culture reagents were from Gibco (USA) and 96-well cell culture plates were purchased from Wallah.
# Standard recombinant DNA techniques were carried out as described by Ausubel (7). The Luciferase reporter vector, pGL5UAS (clone consists of five copies of the GAL4 DNA binding sequence, 5′-[…]-3′, cloned into the SacI/XhoI sites of pGL3-Promoter (Promega). The SacI/XhoI fragment carrying the UAS sites was constructed using annealed overlapping oligonucleotides.
# Expression vectors used are based upon pSG5 (Stratagene). All vectors contain an EcoRI/NheI fragment encoding the DNA binding domain of GAL4 (encoding amino acid positions 1-145 of database accession number P04386) followed by an in-frame fusion to a fragment encoding the nuclear localisation sequence from T antigen of Polyoma Virus.
# The nuclear localisation sequence was constructed using annealed overlapping oligonucleotides creating NheI/KpnI sticky ends(5′-[…]-3′). The ligand binding domains from human and mouse PPARa and human and mouse PPARy were PCR amplified as KpnI/BamHI fragments and cloned in frame to the GAL4 DNA binding domain and the nuclear localisation sequence. The sequence of all plasmid constructs used were confirmed by sequencing. The following expression vectors were used for transient transfections:
# Frozen stocks of cells from passage number six were thawed and expanded to passage number eight before transfections. […]
row,ratio EC50 (PPARγ): EC50 (PPARα),SMILES
1,>1000,"CCO[C@@H](Cc1ccc(OCC(=O)N(Cc2ccc(Cl)cc2)Cc2ccc(Cl)cc2)cc1)C(=O)O [Example 22, (2S)-3-(4-{2-[bis(4-Chlorobenzyl)amino]-2-oxoethoxy}phenyl)-2-ethoxypropanoic acid]"
2,>400,"CCO[C@@H](Cc1ccc(OCC(=O)N(Cc2ccc(Cl)cc2)Cc2ccc(C(C)(C)C)cc2)cc1)C(=O)O [Example 23, (2S)-3-(4-{2-[(4-tert-Butylbenzyl)(4-chlorobenzyl)amino]-2-oxoethoxy}phenyl)-2-ethoxypropanoic acid]"
3,>900,"CCO[C@@H](Cc1ccc(OCC(=O)N(Cc2ccc(C(F)(F)F)cc2)Cc2ccc(C(F)(F)F)cc2)cc1)C(=O)O [Example 25, (2S)-3-[4-(2-{bis[4-(Trifluoromethyl)benzyl]amino}-2-oxoethoxy)phenyl]-2-ethoxypropanoic acid]"
